The values below come from publication PMC12116762, “Topobexin targets the Topoisomerase II ATPase domain for beta isoform-selective inhibition and anthracycline cardioprotection” (Nature Communications, 2025).

pIC50: −log10 of the molar value. Several values for one entry are separate records, joined by “and”; a condition that tells them apart may be missing. Identical values can stand only once.

One assay concerns HL-60 cell line. More on the design: method as in previously determined. The following applies: ref previously determined, read-out: IC50, antiproliferative; cited from earlier work.
Another assay concerns the target T1, YFP-TOP2A (Homo sapiens, UniProt P11388).
T1 construct: Using recombinant full-length human TOP2A and TOP2B enzymes; expressed in transfected cells; host or cells: HEK293F
Description: FRAP analysis, YFP-TOP2A in HEK293F cells. The assay is classed as cell-based. The following applies: 0.25 and 1 μM. As to the method:
HEK293F cells were transfected with DNA plasmids encoding yellow-fluorescent protein (YFP)-TOP2A or YFP-TOP2B (the same DNA constructs for mammalian protein expression and purification) using Lipofectamine 2000 (Thermo Fisher Scientific). Cells were cultured for 24 h post transfection and YFP signals were confirmed prior to FRAP experiments. Transfected cells were plated on glass-bottomed culture dishes (Matsunami) and rested overnight. The next day, each dish was pre-incubated with the indicated inhibitor treatment or DMSO control for 15 min prior to FRAP experiment. Each set of experiments was repeated on at least two different days using newly transfected cells each time. Live-cell imaging was done using a LSM 980 microscope (Carl Zeiss Microscopy, LLC). YFP signal was excited at 508 nm at 2% laser power and detected through a 516–604 nm range. A small area within the nucleus (purple box) is manually selected for fluorescence bleaching at 100% laser power for 50 iterations. Inhibition of TOP2 by obex inhibitors was detected by impairment in fluorescence recovery at 15 s post bleaching, as a lack of inhibition allows for TOP2 diffusion throughout the nucleus.

For the next assay, the system named is NVCM. Nature of the assay: Live-cell microscopy and mitochondrial membrane staining of NVCM. The following applies: 10 µM + DAU 1.2 µM. The assay is classed as cell-based, rat. As to the method: Micrographs were obtained using an Eclipse TS100 inverted epifluorescence microscope (Nikon Corporation, Tokyo, Japan) and NIS-Elements AR 2.20 software (Laboratory Imaging s.r.o., Prague, Czech Republic). After treatment and incubation time corresponding to cytotoxicity/protection experiments (3 h preincubation with topobexin (9) [10 µM], 3 h co-incubation with topobexin (9) [10 µM] + DAU [1.2 µM], 45 h drug-free medium) NVCM were stained with 0.5 μM JC-1 probe (Molecular Probes/Thermo Fisher Scientific, USA) for 30 min at 37 °C or combination of 0.2 μM MitoTracker Red CMXRos (Molecular Probes/Thermo Fisher Scientific, USA) for 30 min and Hoechst 33342 for 10 min at 37 °C and then washed with a buffer (1.2 mM MgSO4 · 7H2O, 116 mM NaCl, 5.3 mM KCl, 1.13 mM NaH2PO4 · H2O, 20 mM HEPES).

For another assay, the target named is T2, TOP2B (Rattus norvegicus, UniProt A0A8I5Y7L4).
T2 construct: endogenous in cells; host or cells: primary neonatal Wistar rat ventricular cardiomyocytes (NVCM)
T2 sequence (A0A8I5Y7L4 1-1614): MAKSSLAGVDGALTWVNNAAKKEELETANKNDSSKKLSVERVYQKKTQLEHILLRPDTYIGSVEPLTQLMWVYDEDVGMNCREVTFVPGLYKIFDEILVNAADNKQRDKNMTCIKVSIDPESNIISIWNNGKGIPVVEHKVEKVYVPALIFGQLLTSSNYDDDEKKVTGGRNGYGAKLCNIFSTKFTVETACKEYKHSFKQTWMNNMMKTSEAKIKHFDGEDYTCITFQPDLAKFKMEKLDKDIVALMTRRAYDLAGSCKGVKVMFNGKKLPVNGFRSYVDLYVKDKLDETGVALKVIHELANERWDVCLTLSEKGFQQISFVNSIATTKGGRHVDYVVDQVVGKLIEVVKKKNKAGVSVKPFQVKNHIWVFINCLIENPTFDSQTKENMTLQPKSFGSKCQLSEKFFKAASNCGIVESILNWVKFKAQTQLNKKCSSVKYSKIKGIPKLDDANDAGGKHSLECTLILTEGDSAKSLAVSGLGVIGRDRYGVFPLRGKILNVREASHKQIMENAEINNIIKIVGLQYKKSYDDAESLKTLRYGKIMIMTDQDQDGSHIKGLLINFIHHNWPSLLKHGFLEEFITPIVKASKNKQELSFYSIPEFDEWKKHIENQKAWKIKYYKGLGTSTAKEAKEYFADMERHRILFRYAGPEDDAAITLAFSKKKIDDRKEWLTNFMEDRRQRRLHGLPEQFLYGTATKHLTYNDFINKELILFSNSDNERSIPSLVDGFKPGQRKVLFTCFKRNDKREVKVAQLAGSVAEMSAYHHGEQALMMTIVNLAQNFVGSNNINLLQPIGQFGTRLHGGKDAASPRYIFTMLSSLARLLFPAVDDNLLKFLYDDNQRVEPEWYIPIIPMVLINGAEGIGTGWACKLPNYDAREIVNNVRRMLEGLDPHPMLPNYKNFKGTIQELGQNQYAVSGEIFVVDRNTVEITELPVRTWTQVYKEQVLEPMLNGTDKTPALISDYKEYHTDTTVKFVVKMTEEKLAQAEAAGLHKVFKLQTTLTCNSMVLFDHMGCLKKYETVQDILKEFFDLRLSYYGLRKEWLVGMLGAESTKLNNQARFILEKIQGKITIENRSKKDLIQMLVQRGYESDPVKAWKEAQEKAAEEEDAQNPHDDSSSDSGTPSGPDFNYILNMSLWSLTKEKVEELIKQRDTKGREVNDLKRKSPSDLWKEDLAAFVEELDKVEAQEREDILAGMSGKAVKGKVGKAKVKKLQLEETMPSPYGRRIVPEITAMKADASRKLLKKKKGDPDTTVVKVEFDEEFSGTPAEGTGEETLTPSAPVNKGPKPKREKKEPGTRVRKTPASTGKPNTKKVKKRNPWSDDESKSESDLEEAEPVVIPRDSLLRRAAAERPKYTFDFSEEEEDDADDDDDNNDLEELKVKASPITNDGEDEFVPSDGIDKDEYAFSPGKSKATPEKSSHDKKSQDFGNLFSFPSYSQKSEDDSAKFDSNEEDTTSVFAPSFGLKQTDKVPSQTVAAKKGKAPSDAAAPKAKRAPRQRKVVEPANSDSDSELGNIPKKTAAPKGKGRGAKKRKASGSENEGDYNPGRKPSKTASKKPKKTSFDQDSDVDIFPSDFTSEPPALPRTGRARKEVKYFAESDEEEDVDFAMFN
Description: TOP2B protein levels in NVCM (Western blotting). To be noted: for TOP2B protein level: independent replicates. In kind it is cell-based. As to the method: TOP2B and γH2AX levels in NVCM were determined as follows. After incubation, 4 × 10^5 rat neonatal cardiomyocytes were lysed with 75 µL of 2% SDS in 0.1 M Tris (pH 7.4) and boiled at 95 °C for 5 min. The protein content of each sample was determined by the BCA method and 10 μg of total protein were loaded onto a polyacrylamide gel (7.5% for TOP2B, 12% for γH2AX, Bio-Rad TGX stain-free gels). After approximately 75 min of electrophoresis (150 V, Bio-Rad Mini-PROTEAN Tetra Cell), the gels were transblotted onto nitrocellulose membranes using a semi-dry method in Transblot Turbo (Bio-Rad, USA). The next day, the membranes were blocked for 1 h in 5% skimmed milk powder in 0.05% TBS-T at room temperature (RT). For TOP2 analysis, membranes were incubated with rabbit anti-TOP2A/B (1:2,000, ab109524, Abcam, UK) in 1% BSA in PBS for 1 h at RT, washed 6 times for 5 min in 0.05% TBS-T and then incubated with HRP-labeled F(ab’)2 goat anti-rabbit IgG (1:10,000, ab6112, Abcam, UK) in 0.05% TBS-T for 1 h RT and washed again (6 × 5 min in 0.05% TBS-T). For γH2AX analysis, membranes were incubated with mouse anti-γH2AX (1:5,000; ab26350, Abcam, UK) in 5% BSA in PBS for 1 h at RT, washed with 0.05% PBS-T for 6 × 5 min, incubated with HRP-conjugated anti-mouse IgG (1:40,000; A9044 Sigma Aldrich, USA) in 5% BSA in PBS for 1 h RT and finally washed with 0.05% PBS-T for 6 times 5 min. Target proteins were visualized using a chemiluminescent detection substrate (Clarity Western ECL Substrate, Bio-Rad, USA) and a Gel Doc EZ with Image Lab software (Bio-Rad, USA). Full, uncropped images of all blots present in the manuscript figures are included in the source data file.
Densitometric quantification was performed using Image Lab software (Bio-Rad). Stain-free technology was used to visualize the total protein on the gel and normalize the total protein amount in each line. Each presented data point was obtained from distinct sample.
On the technique in general: In western blotting, separated proteins are transferred to a membrane and probed.

One may read the pIC50 as the negative decadic logarithm of the IC50, by convention in mol/L.

T1 sequence (P11388 whole entry): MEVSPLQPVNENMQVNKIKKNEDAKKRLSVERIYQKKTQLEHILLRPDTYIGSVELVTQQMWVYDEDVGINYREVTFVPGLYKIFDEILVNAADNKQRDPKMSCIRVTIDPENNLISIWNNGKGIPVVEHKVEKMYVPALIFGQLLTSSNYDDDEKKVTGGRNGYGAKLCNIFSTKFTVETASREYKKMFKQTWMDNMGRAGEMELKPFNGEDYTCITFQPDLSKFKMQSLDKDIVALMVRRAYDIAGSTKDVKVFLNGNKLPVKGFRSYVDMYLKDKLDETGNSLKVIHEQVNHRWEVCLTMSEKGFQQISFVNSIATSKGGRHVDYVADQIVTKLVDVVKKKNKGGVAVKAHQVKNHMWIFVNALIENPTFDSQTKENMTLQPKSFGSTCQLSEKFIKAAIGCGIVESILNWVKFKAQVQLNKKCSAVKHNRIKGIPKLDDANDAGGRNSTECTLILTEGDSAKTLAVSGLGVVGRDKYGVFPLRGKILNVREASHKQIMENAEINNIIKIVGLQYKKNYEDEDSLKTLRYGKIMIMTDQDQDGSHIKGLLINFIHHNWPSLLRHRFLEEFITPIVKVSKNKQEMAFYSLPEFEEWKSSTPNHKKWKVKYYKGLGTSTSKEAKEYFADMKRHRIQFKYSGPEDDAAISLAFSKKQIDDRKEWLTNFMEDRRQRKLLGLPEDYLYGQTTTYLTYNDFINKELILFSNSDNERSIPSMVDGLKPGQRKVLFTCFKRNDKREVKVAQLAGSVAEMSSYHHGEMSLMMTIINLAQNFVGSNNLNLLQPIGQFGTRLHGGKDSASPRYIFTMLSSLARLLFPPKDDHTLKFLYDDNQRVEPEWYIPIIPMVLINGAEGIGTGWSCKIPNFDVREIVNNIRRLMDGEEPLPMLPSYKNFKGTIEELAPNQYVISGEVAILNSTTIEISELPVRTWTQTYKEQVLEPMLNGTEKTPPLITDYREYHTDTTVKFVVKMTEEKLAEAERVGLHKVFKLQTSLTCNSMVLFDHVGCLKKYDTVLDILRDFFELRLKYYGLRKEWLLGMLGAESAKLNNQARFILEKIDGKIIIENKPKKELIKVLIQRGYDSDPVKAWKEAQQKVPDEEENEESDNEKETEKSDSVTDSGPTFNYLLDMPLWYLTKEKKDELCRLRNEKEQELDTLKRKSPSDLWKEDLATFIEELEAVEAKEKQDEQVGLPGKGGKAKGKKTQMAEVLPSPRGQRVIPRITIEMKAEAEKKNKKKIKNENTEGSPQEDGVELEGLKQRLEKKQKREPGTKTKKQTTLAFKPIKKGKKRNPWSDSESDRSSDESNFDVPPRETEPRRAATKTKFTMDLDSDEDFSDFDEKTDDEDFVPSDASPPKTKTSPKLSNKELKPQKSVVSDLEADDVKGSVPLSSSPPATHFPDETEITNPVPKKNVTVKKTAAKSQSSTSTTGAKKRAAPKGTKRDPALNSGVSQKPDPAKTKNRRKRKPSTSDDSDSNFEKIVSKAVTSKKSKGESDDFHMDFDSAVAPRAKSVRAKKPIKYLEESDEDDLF

Consider `COc1cccc2c1C(=O)c1c(O)c3c(c(O)c1C2=O)C[C@@](O)(C(C)=O)C[C@@H]3O[C@H]1C[C@H](N)[C@H](O)[C@H](C)O1` [DAU, daunorubicin, reference compound], for which the pIC50 in the assay with HL-60 cell line is 7.82.
For the molecule `CCCc1cc(=O)oc2c(C(=O)N3CCCc4ccccc43)c(OCCN3CCN(C)CC3)ccc12` [topobexin (9)], the “mobility of TOP2A (FRAP)” value on YFP-TOP2A is “not affected”. Also, the “DAU-induced changes in cardiomyocyte morphology and mitochondria” value in the assay with NVCM is recorded as “reduced the distinct changes in cardiomyocyte morphology induced by DAU”. On TOP2B, the “TOP2B protein levels in NVCM” value is “potent and concentration-dependent depletion”. In addition, the “TOP2B protein level, mean” value on TOP2B (0.1 µM, ctr mean 100) is on record as 23.4137; on TOP2B (1 µM) it was 1.8687; at TOP2B (10 µM), 0.6098. The TOP2B protein level at TOP2B (0.1 µM, ctr mean 100) is 11.507 and 22.9519 and 35.7822; on TOP2B (1 μM), 0.3883 and 3.978 and 1.24; at TOP2B (10 µM) it was 0.07384 and 0.9813 and 0.7742.
